Reference: doi:10.1101/757047v1 (biorxiv, 2019)
Values belong to the compound of their own block, whether it stands above or below them.

Tests used:
SLK [1] = molecular target: T1, SLK (Homo sapiens, UniProt Q9H2G2); test: TR-FRET binding displacement assay
STK10 [2] = molecular target: T2, STK10 (Homo sapiens, UniProt O94804); test: TR-FRET binding displacement assay
GAK = molecular target: T3, GAK (Homo sapiens, UniProt O14976); test: TR-FRET binding displacement assay
T3 sequence (O14976 12-347 limits assumed): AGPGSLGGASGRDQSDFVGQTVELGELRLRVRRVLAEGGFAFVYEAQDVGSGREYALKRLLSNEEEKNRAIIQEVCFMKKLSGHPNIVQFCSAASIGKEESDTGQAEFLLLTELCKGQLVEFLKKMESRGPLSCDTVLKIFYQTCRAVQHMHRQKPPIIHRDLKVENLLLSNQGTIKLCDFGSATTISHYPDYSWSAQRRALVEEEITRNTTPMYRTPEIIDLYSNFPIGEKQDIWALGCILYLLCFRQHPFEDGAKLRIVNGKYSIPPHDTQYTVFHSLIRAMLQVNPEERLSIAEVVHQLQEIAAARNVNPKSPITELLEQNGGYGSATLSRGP

[3] = molecular target: T4, full length GAK protein N-terminally fused with NanoLuc luciferase (Homo sapiens, UniProt O14976); test: cell-based; set-up: species or system HEK293T
T4 sequence (O14976 2-1311): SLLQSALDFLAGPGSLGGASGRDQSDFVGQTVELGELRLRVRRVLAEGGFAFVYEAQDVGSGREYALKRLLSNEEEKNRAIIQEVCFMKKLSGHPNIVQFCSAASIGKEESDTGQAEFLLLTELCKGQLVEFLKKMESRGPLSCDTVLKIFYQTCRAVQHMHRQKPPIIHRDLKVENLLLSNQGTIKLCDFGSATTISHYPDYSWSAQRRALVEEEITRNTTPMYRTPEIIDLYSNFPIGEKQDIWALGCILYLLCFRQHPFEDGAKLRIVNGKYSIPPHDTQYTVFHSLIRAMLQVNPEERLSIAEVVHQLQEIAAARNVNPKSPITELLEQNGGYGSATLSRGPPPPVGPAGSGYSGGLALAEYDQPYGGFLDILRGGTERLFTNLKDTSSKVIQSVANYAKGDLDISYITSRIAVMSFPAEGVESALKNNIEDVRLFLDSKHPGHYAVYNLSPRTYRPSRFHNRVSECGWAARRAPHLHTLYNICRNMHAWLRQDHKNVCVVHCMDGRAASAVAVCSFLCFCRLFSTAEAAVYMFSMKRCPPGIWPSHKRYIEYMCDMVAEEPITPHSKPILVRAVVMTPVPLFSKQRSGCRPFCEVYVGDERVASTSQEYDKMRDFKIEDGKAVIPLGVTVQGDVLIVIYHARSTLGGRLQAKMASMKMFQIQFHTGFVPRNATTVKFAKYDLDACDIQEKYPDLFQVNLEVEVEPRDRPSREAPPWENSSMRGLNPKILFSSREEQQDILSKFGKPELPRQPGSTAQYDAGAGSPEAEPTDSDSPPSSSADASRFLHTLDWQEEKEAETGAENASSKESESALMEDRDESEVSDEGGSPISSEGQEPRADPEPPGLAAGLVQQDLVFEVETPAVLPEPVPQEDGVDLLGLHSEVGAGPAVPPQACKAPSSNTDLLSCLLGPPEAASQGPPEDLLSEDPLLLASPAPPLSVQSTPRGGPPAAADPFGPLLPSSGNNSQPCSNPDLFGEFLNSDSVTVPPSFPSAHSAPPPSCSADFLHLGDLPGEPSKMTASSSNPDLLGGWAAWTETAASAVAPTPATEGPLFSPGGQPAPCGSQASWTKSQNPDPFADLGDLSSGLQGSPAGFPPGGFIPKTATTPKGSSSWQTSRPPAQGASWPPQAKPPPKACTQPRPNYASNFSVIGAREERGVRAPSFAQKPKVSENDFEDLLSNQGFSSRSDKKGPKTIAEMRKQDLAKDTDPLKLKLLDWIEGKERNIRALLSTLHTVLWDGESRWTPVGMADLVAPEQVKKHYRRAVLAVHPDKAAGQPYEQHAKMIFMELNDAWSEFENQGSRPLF

SLK [4] = molecular target: T1, SLK; test: biochemical
STK10 [5] = molecular target: T2, STK10; test: biochemical
[6] = molecular target: T4, full length GAK protein N-terminally fused with NanoLuc luciferase; test: cell-based; set-up: species or system HEK293T; remark: listed apart in the source
[7] = molecular target: T4, full length GAK protein N-terminally fused with NanoLuc luciferase; test: nanoBRET cellular target engagement; type: cell-based

T1 sequence (Q9H2G2 34-292): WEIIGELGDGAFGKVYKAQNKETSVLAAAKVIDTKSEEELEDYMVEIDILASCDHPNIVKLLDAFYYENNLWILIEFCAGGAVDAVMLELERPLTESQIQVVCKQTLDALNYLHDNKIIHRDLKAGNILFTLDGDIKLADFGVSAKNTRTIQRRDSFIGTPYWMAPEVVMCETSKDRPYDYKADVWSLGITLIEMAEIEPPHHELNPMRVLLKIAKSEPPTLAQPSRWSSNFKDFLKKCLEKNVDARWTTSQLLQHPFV
T2 sequence (O94804 36-294 limits assumed): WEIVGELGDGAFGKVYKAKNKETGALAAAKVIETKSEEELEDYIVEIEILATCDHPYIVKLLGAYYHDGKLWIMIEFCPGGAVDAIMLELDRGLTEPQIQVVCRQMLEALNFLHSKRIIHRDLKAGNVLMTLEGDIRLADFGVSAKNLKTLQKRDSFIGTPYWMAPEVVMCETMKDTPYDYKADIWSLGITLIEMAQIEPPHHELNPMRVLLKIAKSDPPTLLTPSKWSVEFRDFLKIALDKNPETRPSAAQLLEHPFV

Ki (SLK [1]): 140 nM
Ki (STK10 [2]): 120 nM
Ki (GAK): 1 nM
Structure (SMILES): C#Cc1cccc(Nc2ncnc3cc(OC)c(OC)cc23)c1 [compound 71, 71]

Ki (SLK [1]): 33000 nM
Ki (STK10 [2]): 4600 nM
Structure (SMILES): COc1cc(Nc2ccnc3ccc(C(F)(F)F)cc23)cc(OC)c1OC [compound 12, 12]

IC50 [3]: 4600 nM
Structure (SMILES): COc1cc(Nc2ncnc3ccccc23)cc(OC)c1OC [compound 23, 23]

IC50 [3]: 3200 nM
Structure (SMILES): COc1cc(Nc2ncnc3cc(Cl)ccc23)cc(OC)c1OC [compound 32, 32]

IC50 [3]: 2100 nM
Structure (SMILES): COc1cc(Nc2ncnc3ccc(C)cc23)cc(OC)c1OC [compound 24, 24]

IC50 [3]: > 5000 nM
Structure (SMILES): COc1cc(Nc2ncnc3cc(C(F)(F)F)ccc23)cc(OC)c1OC [compound 35, 35]

IC50 [3]: 3400 nM
Structure (SMILES): COc1ccc2ncnc(Nc3cc(OC)c(OC)c(OC)c3)c2c1 [compound 39, 39]

IC50 [3]: 4200 nM
Structure (SMILES): COc1cc(Nc2ncnc3cc(Br)ccc23)cc(OC)c1OC [compound 33, 33]

IC50 [3]: 1600 nM
Structure (SMILES): COc1ccc2c(Nc3cc(OC)c(OC)c(OC)c3)ncnc2c1 [compound 41, 41]

Ki (SLK [4]): 360 nM
Ki (STK10 [5]): 440 nM
IC50 [6]: > 5000 nM
Structure (SMILES): C#Cc1cccc(Nc2ncnc3cc(Cl)ccc23)c1 [compound 63, 63]

IC50 [3]: 2400 nM
Structure (SMILES): COc1cc(Nc2ncnc3ccc(Cl)cc23)cc(OC)c1OC [compound 27, 27]

Ki (STK10 [2]): 340 nM
Structure (SMILES): COc1cc2ncnc(Nc3ccc(F)c(Cl)c3)c2cc1OCCCN1CCOCC1 [Gefitinib]

IC50 [3]: 4500 nM
Structure (SMILES): COc1cc(Nc2ncnc3ccc(C(F)(F)F)cc23)cc(OC)c1OC [compound 30, 30]

IC50 [3]: 2400 nM
Structure (SMILES): COc1cc(Nc2ncnc3cc(I)ccc23)cc(OC)c1OC [compound 34, 34]

Ki (SLK [1]): 23000 nM
Ki (STK10 [2]): 2400 nM
Structure (SMILES): COc1cc(Nc2ccnc3ccc(S(C)(=O)=O)cc23)cc(OC)c1OC [compound 15, 15]

IC50 [3]: 1800 nM
Structure (SMILES): COc1cc(Nc2ncnc3ccc(Br)cc23)cc(OC)c1OC [compound 28, 28]

IC50 [3]: > 5000 nM
Structure (SMILES): COc1cc(Nc2ncnc3ccc(S(C)(=O)=O)cc23)cc(OC)c1OC [compound 38, 38]

IC50 [6]: 79 nM
Structure (SMILES): C#Cc1cccc(Nc2ncnc3cc(OC)c(OC)cc23)c1 [compound 71]

Ki (SLK [1]): 34000 nM
Ki (STK10 [2]): 4600 nM
Structure (SMILES): COc1cc(Nc2ccnc3ccc(Br)cc23)cc(OC)c1OC [compound 2, SGC-GAK-1]

Ki (SLK [1]): 5100 nM
Ki (STK10 [2]): 45900 nM
Structure (SMILES): COc1cc(Nc2ccnc3ccc(F)cc23)cc(OC)c1OC [compound 8, 8]

IC50 [7]: 26 nM
Ki (SLK [1]): 7100 nM
Ki (STK10 [2]): 1100 nM
Structure (SMILES): COc1cc2nccc(Nc3cc(OC)c(OC)c(OC)c3)c2cc1OC [compound 3, 3]

IC50 [3]: 3600 nM
Structure (SMILES): COc1cc(Nc2ncnc3ccc(F)cc23)cc(OC)c1OC [compound 25, 25]

IC50 [3]: > 5000 nM
Structure (SMILES): COc1cc(Nc2ncnc3cc(F)ccc23)cc(OC)c1OC [compound 31, 31]

Ki (GAK): 210 nM
IC50 [3]: > 5000 nM
Structure (SMILES): COc1cc(Nc2ncnc3cc(C#N)ccc23)cc(OC)c1OC [compound 36, 4-((3,4,5-trimethoxyphenyl)amino)quinazoline-7-carbonitrile]

Ki (GAK): 420 nM
Ki (SLK [4]): 1300 nM
Ki (STK10 [5]): 1300 nM
IC50 [6]: > 5000 nM
Structure (SMILES): C#Cc1cccc(Nc2ncnc3ccc(S(C)(=O)=O)cc23)c1 [compound 69, N-(3-ethynylphenyl)-6-(methylsulfonyl)quinazolin-4-amine]

IC50 [3]: > 5000 nM
Structure (SMILES): COc1cc(Nc2ncnc3ccc(C#N)cc23)cc(OC)c1OC [compound 37, 37]

Ki (SLK [4]): 3600 nM
Ki (STK10 [5]): 1700 nM
IC50 [6]: 3200 nM
Structure (SMILES): C#Cc1cccc(Nc2ncnc3cc4c(cc23)OCCO4)c1 [compound 74, 74]

IC50 [3]: > 5000 nM
Structure (SMILES): COc1cc(Nc2ncnc3cc(F)c(F)cc23)cc(OC)c1OC [compound 26, 26]

IC50 [3]: 890 nM
Structure (SMILES): COc1cc(Nc2ncnc3ccc(I)cc23)cc(OC)c1OC [compound 29, 29]

IC50 [7]: 12 nM
Ki (SLK [1]): 280 nM
Structure (SMILES): CCOc1cc2ncc(C#N)c(Nc3ccc(F)c(Cl)c3)c2cc1NC(=O)/C=C/CN(C)C [Pelitinib]

Ki (SLK [1]): 17000 nM
Ki (STK10 [2]): 1600 nM
Structure (SMILES): COc1cc(Nc2ccnc3cc(F)ccc23)cc(OC)c1OC [compound 16, 16]

IC50 [3]: 3000 nM
Structure (SMILES): COCCOc1cc2ncnc(Nc3cc(OC)c(OC)c(OC)c3)c2cc1OCCOC [compound 42, 42]
